Experiments:
FRS2_PTB = target: T1, FRS2_PTB (Homo sapiens, UniProt Q8WU20); experiment: nano differential scanning fluorimetry (nanoDSF); type: binding; conditions: 500 μM ligand
T1 construct: FRS2-PTB 11-140aa; 6xHis; made in house; host or cells: E. coli BL21 (DE3)
T1 sequence (Q8WU20 11-140): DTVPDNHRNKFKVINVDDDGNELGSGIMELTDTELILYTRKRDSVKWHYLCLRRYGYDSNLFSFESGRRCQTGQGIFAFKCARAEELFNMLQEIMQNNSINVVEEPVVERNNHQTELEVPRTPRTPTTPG
Protocol: Assay establishment and pilot nanoDSF experiments were performed with a Tycho® system. Each experiment was performed by mixing the protein and ligand of interest at a 1:1 ratio and subsequent incubation for 15–30 min at room temperature. Controls of protein alone and ligand alone in identical buffer compositions as for the complex were measured accordingly. The temperature gradient ranged from 35 to 95 °C, and the heating rate was 30 °C/min. Inflection temperatures TI were calculated from the first derivative of the spectra obtained at the ratio of the signals at 350 nm to those at 330 nm. ΔTI of a complex was calculated as following: ΔTI,complex = TI,complex – TI,protein.
The in-built software version 1.1.5.668 (NanoTemper Technologies, Munich, Germany) and Microsoft Office Excel 365 (Microsoft Corp., Seattle, USA) was used for data analysis. Data was plotted with GraphPad Prism vers. 8.3.0 (GraphPad Software, San Diego, USA).
Purified FRS2_PTB or GB1_FRS2_PTB protein tagged with 6 × Histidine residues and the B1 immunoglobulin binding domain of the streptococcal protein G (GB1) were diluted in the protein buffer (100 mM sodium phosphate, 50 mM NaCl, 0.5 mM EDTA, 50 mM arginine, 1 mM TCEP, pH 7.0) to 30 μM, GB-1 to 40 μM. FGFR_PEP, compounds or paracetamol (PARA) as negative control were dissolved at 1 mM in the protein buffer supplemented with 10% DMSO. Compound and protein were mixed at 1:1 volume ratio yielding a final concentration of 15 μM and 20 μM for FRS2_PTB/GB1_FRS2_PTB and GB1, respectively, as well as 500 μM for FGFR_PEP or compounds. The mixture was incubated for 15 min. Each compound was measured in triplicates. Protein controls were measured in six replicates in the beginning. The quality of the screen was assessed by the Z-factor. nanoDSF validation studies were performed on a Prometheus® system in high sensitivity capillaries. Samples were heated with 1 °C/min from 20 to 95 °C. Each compound was measured in triplicates. GB1-FRS2_PTB and GB1 were diluted in the protein buffer (100 mM sodium phosphate, 50 mM NaCl, 0.5 mM EDTA, 50 mM arginine, 1 mM TCEP, pH 7.0) to 30 μM. Compounds 3.3, 3.4, 3.18 as well as the 3.18 analogues were dissolved in 100% DMSO at 50 or 100 mM and further diluted to 1 mM with a final DMSO-concentration of 100%. FGFR_PEP was dissolved at 1 mM in the protein buffer supplemented with 10% DMSO. Compound and protein were mixed at 1:1 volume ratio yielding final concentrations of 15 μM protein and 500 μM for the compounds. FGFR_PEP was measured against both GB1-FRS2_PTB and GB1, all other compounds only against GB1-FRS2_PTB. The mixture was incubated for 15 min before measurement. The data was analyzed for both the ratio of signals at 330 and 350 nm and at 350 nm alone. […]

DAOY cells = experiment: SIA, EGF-induced cell invasion; type: cell-based, human; conditions: 10 µM
Protocol: 1000—2500 cells/well in 100 μl were seeded in 96 well Corning® Spheroid microplate (CLS4520, Sigma-Aldrich) or in cell-repellent 96 well microplate (650,790, Greiner Bio-one). SIA and analysis was performed as described before. In brief: After spheroid formation (24 – 72 h after seeding), 70 µl medium was removed and replaced with the collagen mixture (2.5 mg/ml Pure Col Collagen I (Advanced Biomatrix)), DMEM 1x (from 10 × stock, Sigma, D2429) and 0.4% Sodium bicarbonate (Sigma, S8761)), resulting in a final collagen concentration of 1.75 mg/ml. Embedded spheroids were stimulated with bFGF (100 ng/ml if not otherwise stated), HGF (30 ng /ml) or EGF (20 ng/ml) and distance of invaded cells quantified 24 – 48 h after embedding. Compounds and BGJ398 were added in Dimethylsulfoxid (DMSO) and corresponding DMSO concentrations were used in control samples.

GB1-FRS2-PTB = target: T2, GB1-FRS2-PTB (Homo sapiens, UniProt Q8WU20); experiment: NMR STD and WaterLOGSY ligand observation; type: binding; conditions: 25 µM GB1-FRS2-PTB, 500 µM ligand, 280 K
T2 construct: FRS2-PTB 11-140aa; 6xHis (N); made in house; host or cells: E. coli BL21 (DE3)
T2 sequence (Q8WU20 11-140): T1 sequence (Q8WU20 11-140)
Protocol: STD and WaterLOGSY experiments were measured at 7 °C on a Bruker AvNEO 600 spectrometer equipped with a TCI cryoprobe. In the STD experiments saturation was achieved by applying a series of Gaussian-shaped pulses at a RF field strength of 54 Hz (max.) for 3 s at -0.5 ppm (-40 ppm for the reference experiment) and 512 scans were accumulated. The WaterLOGSY was measured with 256 scans and a mixing time of 1.5 s. A 7.5 ms Gaussian-shaped 180° pulse was used to control the water magnetization. For both experiments samples of 25 µM GB1-FRS2_PTB with a 20-fold excess of ligand (500 µM) were used or with the ligand alone for the control experiment.

| SMILES | nanoDSF shift of the inflection point of the melting curve (ΔTm) (FRS2_PTB) [°C] | effect on EGF-induced cell invasion (result in words) (DAOY cells) | binding to the PTB domain by STD and WaterLOGSY (result in words) (GB1-FRS2-PTB) |
| --- | --- | --- | --- |
| COc1ncc(C(C)NC2CC(C)(C)NC(C)(C)C2)cc1Cl (stereo not drawn) [Compound 3.3] | ~1.5 |  |  |
| N#Cc1c(Cl)cc(O)c2c1C1C=CCC1C(c1ccc(Cl)cc1)N2 (stereo not drawn) [Compound 14] |  | only moderately reduced |  |
| O=C(O)c1c(Cl)cc(O)c2c1C1C=CCC1C(c1ccc(Cl)cc1)N2 (stereo not drawn) [Compound 13] |  |  | clearly demonstrated binding |
| O=[N+]([O-])c1c(Cl)cc(O)c2c1C1C=CCC1C(c1ccc(Cl)cc1)N2 (stereo not drawn) [Compound 7] |  | only moderately reduced |  |
| CC(C)C[C@@H](CO)NCc1cc(O)c2cc(F)ccc2n1 [Compound 3.14] | > 2.0 |  | clearly demonstrated binding |
